From US9309242B2, “Substituted pyrido[2,3-b]pyrazines as FGFR kinase inhibitors” (priority 2011, dated 2016)
Where two headings read alike, the source gives them in different places.

Assays:
[1] = system: Ba/F3-FGFR1-transfected cells; test: Ba/F3-FGFR1 (plus IL3) cellular proliferation assay, counterscreen with 10 ng/ml murine IL3; format: cell-based; details: read-out: BAF3-FGFR1 (PLUS IL3) pIC50 (converted)
Method in brief: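 Ba/F3-FGFR1 cells (20000/well) in RPMI-1640 with 10% FBS exposed to compound for 24 h at 37° C., 5% CO2, then Alamar Blue (resazurin) added for 4 h; fluorescence read at ex 540/em 590 nm. Counterscreen run identically with 10 ng/ml murine IL3.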

KDR (h) = KDR (h) (Homo sapiens, UniProt P35968); test: KDR (VEGFR2) (enzymatic assay), TR-FRET; format: biochemical; details: read-out: VEGFR 2 (KDR) pIC50 (converted)
Method in brief: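 Human KDR (150 ng/ml) was reacted with 500 nM Btn-Flt3 and 3 μM ATP in 50 mM HEPES pH 7.5, 6 mM MnCl2, 1 mM DTT, 0.1 mM Na3VO4, 0.01% Triton X-100, 1% DMSO, for 120 min at room temperature. Phosphorylation detected by TR-FRET (Eu-anti-P-Tyr/SA-XL665, 60 min), read in RFU.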

[2] = system: Ba/F3-KDR-transfected cells; test: Ba/F3-KDR (plus IL3) cellular proliferation assay, counterscreen with 10 ng/ml murine IL3; format: cell-based; details: read-out: BAF3-KDR (PLUS IL3) pIC50 (converted)
Method in brief: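 Ba/F3-KDR-transfected cells, 20000 per well in phenol red free RPMI-1640 with 10% FBS, exposed to compound 24 hours at 37° C, 5% CO2; Alamar Blue then added for 4 hours and fluorescence read (ex. 540 nm, em. 590 nm). Plus-IL3 counterscreen run identically with 10 ng/ml murine IL3.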

FGFR4 (h) = FGFR4 (h) (Homo sapiens, UniProt P22455); test: FGFR4 (enzymatic assay), TR-FRET; format: biochemical; details: FGFR 4 pIC50, enzymatic assay
[3] = target: Ba/F3-FGFR4-transfected cells (Homo sapiens, UniProt P22455); test: Ba/F3-FGFR4 cellular proliferation assay, Alamar Blue; format: cell-based
Method in brief: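 Ba/F3-FGFR4 cells (20000/well) in phenol red-free RPMI-1640 with 10% FBS are exposed to compound for 24 h at 37 °C, 5% CO2. Alamar Blue (resazurin) is then added for 4 h and fluorescence read at ex 540/em 590 nm.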

FGFR2 (h) = FGFR2 (h) (Homo sapiens, UniProt P21802); test: FGFR2 (enzymatic assay), TR-FRET; format: biochemical; details: enzymatic assay, read-out: FGFR 2 pIC50 (converted)
Method in brief: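 Human FGFR2 (150 ng/ml) was incubated with 500 nM Btn-Flt3 substrate and 0.4 μM ATP in 50 mM HEPES pH 7.5, 6 mM MnCl2, 1 mM DTT, 0.1 mM Na3VO4, 0.01% Triton-X-100. Compound was present at 1% DMSO final.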

FGFR3 (h) = FGFR3 (h) (Homo sapiens, UniProt P22607); test: FGFR3 (enzymatic assay), TR-FRET; format: biochemical; details: read-out: FGFR 3 pIC50 (converted)
Text: Time-Resolved Fluorescence Resonance Energy Transfer (TR-FRET) signal (ex340 nm.

[4] = target: T1, Ba/F3-FGFR1-transfected cells (Homo sapiens, UniProt P11362); test: Ba/F3-FGFR1 (minus IL3) cellular proliferation assay, Alamar Blue; format: cell-based
T1 construct: BAF3-FGFR1 (MIN IL3) pIC50; other: minus IL3
Method in brief: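 Compound is dispensed first, then FGFR1-transfected Ba/F3 cells are added at 20000 per well in phenol red-free RPMI-1640 containing 10% FBS. After 24 h at 37 °C, Alamar Blue is added for 4 h and fluorescence is measured at 540/590 nm.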

[5] = target: T2, Ba/F3-FGFR3-transfected cells (Homo sapiens, UniProt P22607); test: Ba/F3-FGFR3 (minus IL3) cellular proliferation assay, Alamar Blue; format: cell-based
T2 construct: BAF3-FGFR3 (MIN IL3) pIC50; other: minus IL3
Method in brief: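 Compound dilutions were dispensed first, then 20000 FGFR3-transfected Ba/F3 cells per well in serum-containing RPMI-1640 were added. After 24 h incubation at 37° C, Alamar Blue was applied for 4 h before relative fluorescence units were recorded. In the minus-IL3 format cells grow without cytokine; the other format contains 10 ng/ml murine IL3.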

[6] = plus IL3 (10 ng/ml murine IL3, counterscreen)
[7] = average values if tested multiple times

KDR (h), sequence (P35968 20-1356): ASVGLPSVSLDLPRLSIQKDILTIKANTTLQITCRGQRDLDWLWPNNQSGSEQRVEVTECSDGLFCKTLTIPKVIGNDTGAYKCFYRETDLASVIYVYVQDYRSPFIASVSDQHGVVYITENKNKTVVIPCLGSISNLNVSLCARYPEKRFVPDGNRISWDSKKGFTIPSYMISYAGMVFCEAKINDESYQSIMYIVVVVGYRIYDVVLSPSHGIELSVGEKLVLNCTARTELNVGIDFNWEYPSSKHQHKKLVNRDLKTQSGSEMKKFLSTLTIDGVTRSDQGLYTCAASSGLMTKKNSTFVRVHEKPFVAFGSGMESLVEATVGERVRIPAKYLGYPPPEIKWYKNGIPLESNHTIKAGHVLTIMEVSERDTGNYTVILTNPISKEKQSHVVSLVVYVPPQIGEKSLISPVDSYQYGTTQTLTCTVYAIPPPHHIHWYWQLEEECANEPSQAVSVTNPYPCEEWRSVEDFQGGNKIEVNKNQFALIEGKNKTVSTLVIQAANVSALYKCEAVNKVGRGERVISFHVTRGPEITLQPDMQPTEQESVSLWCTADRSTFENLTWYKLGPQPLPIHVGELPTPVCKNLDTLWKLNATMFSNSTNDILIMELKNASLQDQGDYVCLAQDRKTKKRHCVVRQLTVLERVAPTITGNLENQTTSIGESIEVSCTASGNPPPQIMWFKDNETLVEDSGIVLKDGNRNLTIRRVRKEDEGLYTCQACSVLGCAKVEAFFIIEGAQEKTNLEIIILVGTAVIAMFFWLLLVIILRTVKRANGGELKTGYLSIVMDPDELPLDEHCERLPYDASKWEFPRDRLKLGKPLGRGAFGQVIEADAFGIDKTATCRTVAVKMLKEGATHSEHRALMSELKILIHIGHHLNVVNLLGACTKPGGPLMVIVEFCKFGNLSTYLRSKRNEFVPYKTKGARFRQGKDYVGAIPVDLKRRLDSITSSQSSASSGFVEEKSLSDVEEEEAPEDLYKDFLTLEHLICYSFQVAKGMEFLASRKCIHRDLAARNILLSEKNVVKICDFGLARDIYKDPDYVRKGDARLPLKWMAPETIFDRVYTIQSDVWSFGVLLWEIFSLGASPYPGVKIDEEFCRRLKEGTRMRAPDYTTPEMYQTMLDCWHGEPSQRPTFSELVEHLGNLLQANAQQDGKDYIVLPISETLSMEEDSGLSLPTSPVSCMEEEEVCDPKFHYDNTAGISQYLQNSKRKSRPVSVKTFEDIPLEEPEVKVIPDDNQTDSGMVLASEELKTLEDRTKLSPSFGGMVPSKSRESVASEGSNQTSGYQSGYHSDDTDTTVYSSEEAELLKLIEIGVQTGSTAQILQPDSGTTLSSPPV
FGFR2 (h), sequence (P21802 22-821): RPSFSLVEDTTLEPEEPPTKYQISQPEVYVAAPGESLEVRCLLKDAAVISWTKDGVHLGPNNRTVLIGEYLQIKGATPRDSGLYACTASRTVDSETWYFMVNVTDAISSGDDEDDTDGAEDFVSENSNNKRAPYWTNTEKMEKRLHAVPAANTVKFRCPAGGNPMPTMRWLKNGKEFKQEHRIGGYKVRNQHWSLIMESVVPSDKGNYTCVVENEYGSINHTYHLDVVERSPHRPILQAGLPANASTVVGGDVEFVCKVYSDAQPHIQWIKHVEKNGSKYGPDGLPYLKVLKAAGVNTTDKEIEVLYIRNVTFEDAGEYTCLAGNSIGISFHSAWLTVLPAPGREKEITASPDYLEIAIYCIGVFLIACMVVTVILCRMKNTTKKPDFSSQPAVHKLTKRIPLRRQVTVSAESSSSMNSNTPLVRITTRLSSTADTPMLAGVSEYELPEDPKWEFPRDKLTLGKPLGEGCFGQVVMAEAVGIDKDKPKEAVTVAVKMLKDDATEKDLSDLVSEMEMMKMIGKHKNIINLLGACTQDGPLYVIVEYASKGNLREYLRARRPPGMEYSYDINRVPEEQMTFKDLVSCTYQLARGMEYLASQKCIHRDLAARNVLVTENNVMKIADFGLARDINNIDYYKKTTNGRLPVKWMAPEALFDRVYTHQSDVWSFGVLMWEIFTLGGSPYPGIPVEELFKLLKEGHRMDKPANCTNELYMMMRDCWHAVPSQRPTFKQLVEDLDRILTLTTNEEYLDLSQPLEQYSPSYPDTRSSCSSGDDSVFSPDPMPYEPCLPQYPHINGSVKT
FGFR4 (h), sequence (P22455 22-802): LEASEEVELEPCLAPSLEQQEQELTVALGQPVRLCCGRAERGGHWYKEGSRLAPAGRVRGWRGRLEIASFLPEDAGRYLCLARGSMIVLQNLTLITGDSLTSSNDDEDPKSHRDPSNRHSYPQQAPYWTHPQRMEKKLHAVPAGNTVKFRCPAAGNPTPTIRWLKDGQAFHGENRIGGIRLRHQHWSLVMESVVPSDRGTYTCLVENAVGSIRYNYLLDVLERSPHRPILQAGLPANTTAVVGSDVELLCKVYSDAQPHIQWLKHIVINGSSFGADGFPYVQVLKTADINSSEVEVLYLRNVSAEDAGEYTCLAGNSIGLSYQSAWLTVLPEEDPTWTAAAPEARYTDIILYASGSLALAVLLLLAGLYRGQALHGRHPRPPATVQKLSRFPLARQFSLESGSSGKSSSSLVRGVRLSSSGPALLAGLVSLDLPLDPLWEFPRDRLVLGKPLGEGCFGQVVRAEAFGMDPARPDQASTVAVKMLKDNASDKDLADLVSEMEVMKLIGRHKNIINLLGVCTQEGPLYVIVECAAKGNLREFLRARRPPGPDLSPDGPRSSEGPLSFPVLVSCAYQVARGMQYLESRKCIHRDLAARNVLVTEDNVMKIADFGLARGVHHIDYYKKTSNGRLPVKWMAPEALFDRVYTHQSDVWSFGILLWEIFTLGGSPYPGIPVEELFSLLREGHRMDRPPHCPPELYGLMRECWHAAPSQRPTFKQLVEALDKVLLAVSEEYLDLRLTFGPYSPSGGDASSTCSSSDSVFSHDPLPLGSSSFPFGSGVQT
T1 sequence (P11362 whole entry, change not shown): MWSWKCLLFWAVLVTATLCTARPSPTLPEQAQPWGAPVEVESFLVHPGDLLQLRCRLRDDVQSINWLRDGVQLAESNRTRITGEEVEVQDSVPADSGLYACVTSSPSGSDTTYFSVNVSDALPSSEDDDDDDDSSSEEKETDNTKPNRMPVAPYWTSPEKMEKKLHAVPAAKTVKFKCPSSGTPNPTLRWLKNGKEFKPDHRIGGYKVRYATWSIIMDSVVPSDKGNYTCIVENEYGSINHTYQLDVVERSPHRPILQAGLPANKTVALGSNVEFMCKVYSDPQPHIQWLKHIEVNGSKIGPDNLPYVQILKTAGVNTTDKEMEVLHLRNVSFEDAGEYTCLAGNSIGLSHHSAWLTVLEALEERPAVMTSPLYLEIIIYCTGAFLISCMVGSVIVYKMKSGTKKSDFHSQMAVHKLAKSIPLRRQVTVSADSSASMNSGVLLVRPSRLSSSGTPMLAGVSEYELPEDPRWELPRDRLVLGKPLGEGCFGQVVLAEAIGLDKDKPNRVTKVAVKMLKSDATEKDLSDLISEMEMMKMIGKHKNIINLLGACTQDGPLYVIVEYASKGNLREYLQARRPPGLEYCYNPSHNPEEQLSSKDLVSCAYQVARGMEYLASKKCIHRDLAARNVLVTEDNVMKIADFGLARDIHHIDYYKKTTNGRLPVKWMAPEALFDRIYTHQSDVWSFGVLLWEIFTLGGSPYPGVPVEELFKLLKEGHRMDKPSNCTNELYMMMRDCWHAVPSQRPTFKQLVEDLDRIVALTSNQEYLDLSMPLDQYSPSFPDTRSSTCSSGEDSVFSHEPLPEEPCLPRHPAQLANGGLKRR
Ba/F3-FGFR4-transfected cells, sequence (P22455 whole entry, change not shown): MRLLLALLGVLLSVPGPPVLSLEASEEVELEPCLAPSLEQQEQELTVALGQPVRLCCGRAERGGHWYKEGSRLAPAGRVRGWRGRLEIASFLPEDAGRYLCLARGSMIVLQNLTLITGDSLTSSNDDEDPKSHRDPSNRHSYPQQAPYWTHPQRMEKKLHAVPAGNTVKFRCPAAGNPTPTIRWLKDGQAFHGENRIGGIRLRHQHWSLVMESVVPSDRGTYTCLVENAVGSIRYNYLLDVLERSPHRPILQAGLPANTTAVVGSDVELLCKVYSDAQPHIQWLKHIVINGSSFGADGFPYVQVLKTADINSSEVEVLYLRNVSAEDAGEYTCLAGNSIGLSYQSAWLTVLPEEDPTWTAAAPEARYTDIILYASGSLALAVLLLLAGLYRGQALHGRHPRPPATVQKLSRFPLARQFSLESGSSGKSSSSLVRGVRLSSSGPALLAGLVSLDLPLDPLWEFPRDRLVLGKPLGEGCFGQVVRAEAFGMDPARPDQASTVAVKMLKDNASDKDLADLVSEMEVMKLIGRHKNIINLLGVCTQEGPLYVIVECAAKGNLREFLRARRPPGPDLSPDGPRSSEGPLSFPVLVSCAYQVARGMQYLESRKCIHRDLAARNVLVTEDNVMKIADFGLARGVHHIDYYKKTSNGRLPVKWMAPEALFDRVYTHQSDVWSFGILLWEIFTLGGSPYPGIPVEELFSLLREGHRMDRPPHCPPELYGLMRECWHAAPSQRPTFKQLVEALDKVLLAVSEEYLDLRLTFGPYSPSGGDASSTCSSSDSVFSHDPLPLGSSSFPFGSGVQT

| Compound | IC50 [1, 6] [nM] | IC50 (KDR (h); [7]) [nM] | IC50 [2, 6] [nM] | IC50 (FGFR4 (h); [7]) [nM] | BAF3-FGFR4 pIC50 [3] | IC50 (FGFR2 (h); [7]) [nM] | IC50 (FGFR3 (h); [7]) [nM] | BAF3-FGFR1 (MIN IL3) pIC50 [4] | BAF3-FGFR3 (MIN IL3) pIC50 [5] | IC50 (KDR (h)) [nM] | IC50 (FGFR4 (h)) [nM] | IC50 (FGFR2 (h)) [nM] | IC50 (FGFR3 (h)) [nM] | IC50 [1] [nM] | IC50 [2] [nM] |
| --- | --- | --- | --- | --- | --- | --- | --- | --- | --- | --- | --- | --- | --- | --- | --- |
| COc1cc(OC)c(F)c(N(Cc2ccnn2C)c2ccc3ncc(-c4cnn(C)c4)nc3n2)c1 [Compound 113] | > 10000 | 51.3 | > 10000 | 3.31 | 6.63 | 2.19 | 1.38 | 7.19 | 6.72 | – | – | – | – | – | – |
| CNCCN(c1ccc2ncc(-c3cnn(C)c3)nc2n1)c1c(F)ccc(OC)c1Cl [Compound 69] | > 10000 | 417 | > 10000 | 38.9 | 6.11 | 4.27 | 6.46 | 7.06 | 6.76 | – | – | – | – | – | – |
| COc1cc(OC)c(F)c(N(Cc2ncc[nH]2)c2ccc3ncc(-c4cnn(C)c4)nc3n2)c1 [Compound 23] | > 10000 | 7.08 | > 10000 | 1 | 8.02 | 1.45 | 1.07 | 8.85 | ~8.40 | – | – | – | – | – | – |
| COc1cc(OC)c(Cl)c(N(Cc2ncc[nH]2)c2ccc3ncc(-c4cnn(C)c4)nc3n2)c1Cl [Compound 98] | > 10000 | 16.6 | > 10000 | 7.76 | 6.56 | 4.37 | 2.69 | 7.72 | 7.65 | – | – | – | – | – | – |
| COc1cc(OC)cc(N(CC2CCCCO2)c2ccc3ncc(-c4cnn(C)c4)nc3n2)c1 (stereo not drawn) [Compound 129] | > 10000 | – | > 10000 | – | 6.36 | – | – | ~7.15 | ~7.15 | 58.9 | 7.76 | 2.4 | 2.69 | – | – |
| COc1cc(OC)c(F)c(N(CCO)c2ccc3ncc(-c4cnn(C)c4)nc3n2)c1 [Compound 40] | > 10000 | 17.4 | > 10000 | 1.82 | 7.04 | 1.48 | 0.646 | 7.80 | 7.84 | – | – | – | – | – | – |
| COc1cc(OC)c(F)c(N(CCCO)c2ccc3ncc(-c4cnn(C)c4)nc3n2)c1F (single isomer, unassigned) [Compound 16] | > 10000 | 100 | > 10000 | 25.1 | 7.7 | 15.8 | 25.1 | 8.0 | 7.8 | – | – | – | – | – | – |
| COc1cc(OC)cc(N(Cc2nc[nH]n2)c2ccc3ncc(-c4cnn(C)c4)nc3n2)c1 [Compound 71] | – | 19.1 | – | 1.62 | 7.14 | 1.55 | 0.776 | 7.49 | 7.71 | – | – | – | – | > 10000 | > 10000 |
| COc1cc(OC)c(F)c(N(Cc2cnccn2)c2ccc3ncc(-c4cnn(C)c4)nc3n2)c1F [Compound 10] | > 10000 | 31.6 | > 10000 | 100 | 7.57 | 35.5 | 63.1 | 8.1 | 7.85 | – | – | – | – | – | – |
| COc1cc(OC)cc(N(CC2CCC(=O)N2)c2ccc3ncc(-c4cnn(C)c4)nc3n2)c1 (stereo not drawn) [Compound 49] | > 10000 | 60.3 | > 10000 | 6.31 | 6.24 | 1.95 | 1.62 | 6.78 | ~6.85 | – | – | – | – | – | – |
| COCC(O)Cn1c(=Nc2c(F)c(OC)cc(OC)c2F)ccc2ncc(-c3cnn(C)c3)nc21 (stereo not drawn) [Compound 51] | > 10000 | 7.76 | > 10000 | 0.525 | 7.77 | 1.29 | 0.501 | 8.48 | ~8.03 | – | – | – | – | – | – |
